{"source": "patent US7083959B2", "about": "“Therapeutic suppression of specific immune responses by administration of oligomeric forms of antigen of controlled chemistry” (The Johns Hopkins University, priority 1983, dated 2006)", "key": {"CAF1/J mice": {"system": "CAF1/J mice", "experiment": "Immunogenicity of monomeric and polymerized BSA or OVA without adjuvant, serum ELISA", "format": "in vivo", "conditions": "for serum anti-BSA IgM response: day 6, injected in saline without adjuvant, FIG. 40; for IgM and IgG anti-protein responses: administered without adjuvant", "experimental": "The molecular weight for each fraction was then determined by the use of the Model E analytical ultracentrifuge under equilibrium conditions. During this prolonged series of slow fractionation steps, molecules which were unstable to any of the many steps involved in processing, handling, or storage were fractionated away from the samples, yielding a series of preparations, each of which contained a relatively narrow range of molecular sizes of substantial time stability. These water soluble preparations were then injected into mice intra-peritoneally, without the use of any adjuvant, in order to determine their relative immunogenicity. The level of immune response was determined by measuring serum IgM or IgG antibody levels against BSA or OVA by standard solid state ELISA technique."}, "anti-104 antibodies": {"system": "anti-104 antibodies", "experiment": "Share of anti-104 antibodies directed against 159, direct binding ELISA and competition assay", "set-up": "species or system mice", "source_text": "However this peptide can be recognized by B cells since BSA conjugates raise good antibody responses to 159. Furthermore, as mentioned above, a substantial portion of antibodies raised by the 104-conjugates are directed against 159 as indicated both by direct binding in ELISA assay and by competition assay using free 159 to inhibit binding of anti-104 antibodies to 104-gelatin."}, "[1]": {"system": "Sera obtained from (NZBxNZW) F1 mice", "experiment": "Epitope mapping: binding of lupus mouse sera to histone H2B peptides", "source_text": "This identification process, referred to herein as “epitope mapping”, involves the synthesis of various overlapping peptide fragments which are subsequently analyzed to establish regions of antigenicity. Clearly, the study of the entire H2B structure (125 amino acids) would require a very large amount of peptide synthesis. However, it is known from studies of SLE patients and mice with lupus-like disease that removal of the H2B N-terminal region with trypsin results in a loss of antigenicity (Portanova, J. P., et. al., J. Immunol. 38, 446–457, (1987)). Attention was, therefore, focussed on the synthesis of peptides derived from this region of histone H2B."}}, "note": "Where no end group is shown, it is not given here."}
{"molecule": "BSA 70-mer: soluble highly polymerized BSA containing 70 BSA monomers, carbodiimide cross-linked (5000 kD)", "values": [{"measurement": "serum anti-BSA IgM response", "setting": "CAF1/J mice", "value": "capable of raising IgM antibodies even at very low doses"}]}
{"molecule": "N-Ac-Cys-(ε-ACA)-Glu-Ala-His^331-Ala-Glu-Ile-Asn-Glu-Ala-Gly-Arg^339-CONH2 ({Ac-Cys-ε‑ACA}-EAHAEINEAGR-NH2; listed as Mus musculus) [compound 159, represents residues 331–339 of chicken ovalbumin (OVA)]", "values": [{"measurement": "share of antibody response to 104 attributed to 159", "setting": "anti-104 antibodies; 104 arrayed on dextran or BSA", "value": "40–50%"}, {"measurement": "share of 104 response competed with soluble 159", "setting": "anti-104 antibodies; solution phase competition assays (data not shown)", "value": "up to 40%"}]}
{"molecule": "N-Acetyl-Ala-Pro-Lys-Lys-Gly-Ser-Lys-Lys-Ala-Val-Thr-Lys-Ala-Gln-Lys-Cys-CONH2 (Ac-APKKGSKKAVTKAQKC-NH2) [Lupus 4′]", "values": [{"measurement": "binding of sera to peptide", "setting": "[1]", "value": "not"}]}
{"molecule": "N-Acetyl-Cys-Ala-Pro-Lys-Lys-Gly-Ser-Lys-Lys-Ala-Val-Thr-Lys-Ala-Gln-Lys-CONH2 (Ac-CAPKKGSKKAVTKAQK-NH2) [Lupus 3′]", "values": [{"measurement": "binding of sera to peptide", "setting": "[1]", "value": "not"}]}
{"molecule": "N-Acetyl-Cys-Lys-Ala-Val-Thr-Lys-Ala-Gln-Lys-Lys-Asp-Gly-Lys-Lys-Arg-Lys-CONH2 (Ac-CKAVTKAQKKDGKKRK-NH2) [Lupus 5′]", "values": [{"measurement": "binding of sera to peptide", "setting": "[1]", "value": "not"}]}
{"molecule": "Polymeric BSA: BSA polymerized to itself through a water soluble carbodiimide, size fractionated", "values": [{"measurement": "IgM and IgG anti-protein responses", "setting": "CAF1/J mice", "value": "considerable"}]}
{"molecule": "Pro-Glu-Pro-Ala-Lys-Ser-Ala-Pro-Ala-Pro-Lys-Lys-Gly-Ser-Lys-Cys-CONH2 (PEPAKSAPAPKKGSKC-NH2) [Lupus 2′]", "values": [{"measurement": "binding of sera to peptide", "setting": "[1]", "value": "bind strongly"}]}
{"molecule": "monomeric BSA: monomeric (68 kD) bovine serum albumin [reference compound]", "values": [{"measurement": "serum anti-BSA IgM response", "setting": "CAF1/J mice", "value": "requires substantially higher doses"}, {"measurement": "anti-BSA IgG response", "setting": "CAF1/J mice; repeated injections in saline at doses up to 100 μg, FIG. 43", "value": "not very effective"}]}
{"molecule": "Polymeric OVA: OVA polymerized to itself by glutaraldehyde, size fractionated (protein, UniProt P01012 2-386, looked up, glutaraldehyde self-polymerized, OVA polymerized to itself by glutaraldehyde, size fractionated) Ovalbumin: GSIGAASMEFCFDVFKELKVHHANENIFYCPIAIMSALAMVYLGAKDSTRTQINKVVRFDKLPGFGDSIEAQCGTSVNVHSSLRDILNQITKPNDVYSFSLASRLYAEERYPILPEYLQCVKELYRGGLEPINFQTAADQARELINSWVESQTNGIIRNVLQPSSVDSQTAMVLVNAIVFKGLWEKAFKDEDTQAMPFRVTEQESKPVQMMYQIGLFRVASMASEKMKILELPFASGTMSMLVLLPDEVSGLEQLESIINFEKLTEWTSSNVMEERKIKVYLPRMKMEEKYNLTSVLMAMGITDVFSSSANLSGISSAESLKISQAVHAAHAEINEAGREVVGSAEAGVDAASVSEEFRADHPFLFCIKHIATNAVLFFGRCVSP", "values": [{"measurement": "IgM and IgG anti-protein responses", "setting": "CAF1/J mice", "value": "considerable"}]}
